Type in all cases: in vivo
Test [1] is described as follows: Fecal lipid excretion (triglycerides, cholesterol, free fatty acids) in C57BL/6J mice fed a high-fat diet containing vegetable lipids with or without 5% allulose for 8 weeks. Particulars: in words. From the text:
Twenty C57BL/6J mice (male, 4-week-old) were purchased from The Jackson Laboratory (USA) and used. After the animals were acclimated to the feeding environment with a lab-chow diet (Purina Co., USA) for 4 weeks, they were divided by a randomized block design into two groups: a negative control group without the ingestion of allulose (n=10/one kind of lipid); and a test group with the ingestion of allulose (n=10/one kind of lipid) and they were fed with the diets for 8 weeks. For the negative control group, the high-fat diet was applied to the AIN-76 diet, and the vegetable lipids [palm oil ([…], Malaysia), olive oil (CJ CheilJedang Corp., South Korea), soybean oil (CJ CheilJedang Corp., South Korea), margarine (Ottogi Foods Co., Ltd., 'Corn margarine', raw materials: consisted of 80 wt % of vegetable lipids (palm olein oil, palm stearin oil, coconut oil, corn oil)] were included. For the test group, among the ingredients of the diet for the negative control group, 5 wt % of sucrose was replaced with allulose (crystalline allulose, 98 wt % of allulose based on dry solids, CJ CheilJedang Corporation) (Table 1). All the animal experiments were carried out under the approval of the Ethics Committee for Animal Studies at Kyungpook National University, South Korea (approval no. KNU-2013-18). […] To remove the turbidity occurring from the development with 3 mM cholic acid (sodium salt), 0.5% Triton X-100 as an emulsifier was mixed with an enzyme test solution during the quantification of total cholesterol and neutral lipids. […] For the quantification of both free cholesterol (FC) and ester-type cholesterol (CE) in the feces, CE was converted by cholesterol esterase into FC and fatty acids. […] The resulting product and H2O2 which is the substrate were subjected to the reaction with peroxidase, phenol, and 4-amino-antipyrine to obtain a color developing material and the absorbance was measured at 500 nm. Quantification was carried out by comparing the measured value with the cholesterol standard curve. […]

Test [2] is described as follows: Body weight of C57BL/6J mice fed a high-fat diet containing vegetable lipids (palm oil, olive oil, soybean oil, margarine) with or without 5% allulose for 8 weeks. Particulars: with allulose (5%), mean (SE in cell below); for Initial body weight: 0th week. From the text: Twenty C57BL/6J mice (male, 4-week-old) were purchased from The Jackson Laboratory (USA) and used. After the animals were acclimated to the feeding environment with a lab-chow diet (Purina Co., USA) for 4 weeks, they were divided by a randomized block design into two groups: a negative control group without the ingestion of allulose (n=10/one kind of lipid); and a test group with the ingestion of allulose (n=10/one kind of lipid) and they were fed with the diets for 8 weeks. For the negative control group, the high-fat diet was applied to the AIN-76 diet, and the vegetable lipids [palm oil ([…], Malaysia), olive oil (CJ CheilJedang Corp., South Korea), soybean oil (CJ CheilJedang Corp., South Korea), margarine (Ottogi Foods Co., Ltd., 'Corn margarine', raw materials: consisted of 80 wt % of vegetable lipids (palm olein oil, palm stearin oil, coconut oil, corn oil)] were included. For the test group, among the ingredients of the diet for the negative control group, 5 wt % of sucrose was replaced with allulose (crystalline allulose, 98 wt % of allulose based on dry solids, CJ CheilJedang Corporation) (Table 1). All the animal experiments were carried out under the approval of the Ethics Committee for Animal Studies at Kyungpook National University, South Korea (approval no. KNU-2013-18). All groups were allowed to ingest the iso-energetic diet of the same level by pair feeding based on the test group so as to exclude the calorie-reducing effect due to the allulose and the diets were kept refrigerated at 4° C. during the feeding period. The animals were housed in an individual cage under constant temperature (25±2° C.), constant humidity (50±5%), and a 12 h dark-light cycle. Dietary intake was measured at a constant time every day, and the body weight was measured at a constant time every week.

Test [3] can be described thus: Fecal lipid excretion (triglycerides, cholesterol, free fatty acids) in C57BL/6J mice fed a high-fat diet containing creamer with or without 5% allulose for 8 weeks. Particulars: allulose consumed along with vegetable lipids in the creamer, in words. From the text: Sixteen C57BL/6J mice (male, 4-week-old) were purchased from The Jackson Laboratory (USA) and used. After the animals were acclimated to the feeding environment with a lab-chow diet (Purina Co., USA) for 4 weeks, they were divided by a randomized block design into two groups: a negative control group without the ingestion of allulose (PR, n=8); and a test group with the ingestion of allulose (PRA, n=8) and they were fed with the diets for 8 weeks. […] To remove the turbidity occurring from the development with 3 mM cholic acid (sodium salt), 0.5% Triton X-100 as an emulsifier was mixed with an enzyme test solution during the quantification of total cholesterol and neutral lipids. […] For the quantification of both free cholesterol (FC) and ester-type cholesterol (CE) in the feces, CE was converted by cholesterol esterase into FC and fatty acids. […] The resulting product and H2O2 which is the substrate were subjected to the reaction with peroxidase, phenol, and 4-amino-antipyrine to obtain a color developing material and the absorbance was measured at 500 nm. Quantification was carried out by comparing the measured value with the cholesterol standard curve. […]

Molecules are shown by their SMILES.

In the case of `O=C(CO)C(O)C(O)C(O)CO` [allulose, Allulose (D-psicose)], in test [1] (HFD + soybean oil with 5% allulose compared to the SO group), the “Cholesterol content in the feces / excretion of cholesterol” value is reported as “increased”. For the same compound, the “Fecal excretion of lipids” value in test [1] (allulose consumed along with each of palm oil, olive oil, soybean oil, and margarine) is given as “promoted”; in test [3], “promoted”. Besides, in test [1] (allulose taken together with soybean oil), the “Effect of excreting lipids compared to ingestion of allulose along with other vegetable lipids” value is recorded as “excellent”. Also, the Initial body weight in test [2] (HFD + margarine) was 21.57±; in test [2] (HFD + olive oil), 21.28±; in test [2] (HFD + palm oil) it was 21.62±; in test [2] (HFD + soybean oil), 21.23±. Moreover, the “Body weight on 8th week” value is recorded as 32.30± in test [2] (HFD + margarine), 28.87± in test [2] (HFD + olive oil), 29.57± in test [2] (HFD + palm oil) and 28.84± in test [2] (HFD + soybean oil).

The record behind these values is patent US20200170269A1, “ALLULOSE-CONTAINING COMPOSITION FOR PROMOTING EXCRETION OF VEGETABLE LIPIDS FROM THE BODY” (CJ CHEILJEDANG CORPORATION, priority 2016, published 2020).
